According to patent US9248108B2 (Ottawa Hospital Research Institute, priority 2012, dated 2016):
Read-outs that look alike come from different tables or passages of the source. Marks after values point to notes of the source that are not given here.

Tests used:
ovarian polyamines = assay: Ovarian polyamine quantification by ion chromatography; assay type: in vivo, mouse; conditions: older mice, 1% putrescine in drinking water for several days
Procedure: A Dionex ion chromatography system was used to analyze polyamines during ovulation. This system employs an online conductivity detector coupled with an anion suppressor such that only cations are detected. Ovaries were extracted in 5% trichloric acid (TCA) followed by extraction with diethyl ether. The TCA extracts were diluted in water before being applied to the ion chromatography system.
(§1) Polyamines from ovarian samples were determined by ion chromatography (IC) system (Rey and Pohl, 2003. J. Chromatography A 997:199-206). Ovaries were collected immediately after animal sacrifice and stored at −80° C. until use. The samples were thawed and minced, and then 5% trichloroacetic acid (TCA) was added (20 μl/mg). The samples were ultra-sonicated 30 seconds thrice. After centrifugation, the supernatants were extracted twice with diethyl ether. The mouse blood was collected in a tube containing 1 iu/ml heparin (LEO). After centrifugation, the supernatant (plasma) was collected and 10% TCA was added by 1:1 in volume. These plasma samples were extracted twice with diethyl ether, as noted above. The extracts were diluted 10 times in water for polyamine analysis on Dionex Ion ICS-2100 system (Thermo scientific, Dionex, Sunnyvale, Calif., USA) according to the manufacture instructions, using the support software of PeakNet 6.40 SP5 Build 778.

in vivo = conditions: mouse, plasma
Procedure: as §1

9-month-old CF1 mice = test system: 9-month-old CF1 mice
From the text: Four (4) days later, the female mice are caged individually with fertile males (1:1) overnight. The females were examined in the morning for the presence of a vaginal plug (indicative of mating) and “plugged” females are considered E0 and separated from the males. Mice without a plug were continued mating until a plug was seen, or for up to a total of 4 days (average length of a mouse estrus cycle). Mice were sacrificed on E12 (“unplugged” mice were also sacrificed, taking the next morning following the 4-day-mating as E0) and their uterine horns inspected for normal embryos and dead embryos (resorption).

[1] = test system: oocytes of C57BL/6 (8 months) mice
Procedure: GV oocytes isolated from the ovaries of control mice were incubated for 17 h in αMEM. […] Metaphase II eggs following IVM were karyotyped and data expressed. Karyotype analyses were carried out by dual stains (anti-CREST and Sytox green) of metaphase II chromosomes. N: number of interpretable metaphase II karyotypes containing at least 18 dyads or the equivalent (e.g. 17 dyads plus 2 separated sister chromatids). Hypoploid: 18-19 dyads. Euploid: 20 dyads. Hyperploid: 21. PSSC: any karyotypes containing separated sister chromatid(s), with the total of at least 18 dyads or the equivalents. Aneuploid: 2×hyperploid+PSSC. Detailed breakdowns are in Table 14.
Mice were euthanized by cervical dislocation 44-46 h after they were primed with 5 IU equine chorionic gonadotropin (eCG) intraperitonally. […] Ovaries were immediately removed and minced in M2 medium (Sigma; unless otherwise indicated, other chemicals used in this study were also purchased from Sigma) to release oocytes. Oocytes with a clear germinal vesicle (GV) were used for in vitro maturation (IVM) for 17 hours in IVM medium (αMEM medium supplemented with 5% fetal bovine serum and 1 mM L-glutamine) overlaid with mineral oil.
Chromosome spread was carried out according to Hodges and Hunt (Hodges & Hunt, 2002) with minor modifications. In brief, oocytes or 2-cell embryos were collected in M2 medium. The zona pellucida was removed by treatment with 0.5 units/μl pronase at 37° C. for 20 sec. Zona-free oocytes/embryos were rinsed in M2 medium to detach polar bodies. The oocytes/embryos were individually plated onto glass slides (1-10 oocytes/embryos per slide) predipped in the fixative (prepared weekly and stored at 4° C.) containing 1% paraformaldehyde (w/v), 0.15% Triton X-100 (v/v), and 3 mM dithiothreitol, pH 9.2. Slides were kept overnight in moist boxes at room temperature. The slides were then rinsed in 0.5% Kodak Flo (Eastman Kodak Company, Rochester, N.Y.) solution and air-dried. The slides were incubated in 1:200 diluted human anti-centromere serum (Immunovision, Springdale, Ark.) in PBS containing 1% BSA overnight at 4° C., in 1:300 diluted secondary antibody (goat anti-human) conjugated with rhodamine (Jackson ImmunoResearch) in PBS-BSA for 1 h at room temperature, and 0.1% SYTOX green (Invitrogen, Eugene, Oreg.) in PBS for 30 min at room temperature. To avoid bias, the slides were coded by a colleague before being examined by an investigator using epifluorescence microscopy and photographed. Decoding was done after karyotypes were tabulated.

[2] = 1 mM putrescine in drinking water, stated by Penderville H. et al; cited from earlier work
[3] = test system: oocytes of very old (16 months) odc-/+ mice
From the text: Table 12 Summary of two independent experiments. N: total numbers of oocytes in two experiments; GV: oocytes remained in prophase I; MI, no germinal vesicle and no polar body seen (used for spindle examination); PB1, oocytes with first polar body; Fragmented: abnormal cleavage likely due to parthenogenetic activation. * one MI oocyte was lost during handling.

[4] = number of MII eggs, 1% putrescine drinking water one week, IVM with 5 mM putrescine

In the case of `NCCCCN` [Putrescine, putrescine], the “levels of ovarian spermidine and spermine” value (ovarian polyamines) is reported as “remained unchanged”, the “levels of ovarian putrescine compared to control mice” value (ovarian polyamines; before or 5 h after hCG) is reported as “appreciably higher” and the concentration at 20 min (in vivo; sc) is reported as 42 µM. For the same compound, the concentration at 40 min (in vivo; subcutaneous) was 16 µM, the concentration at 60 min (in vivo; subcutaneous) was 8 µM and the Total implants (9-month-old CF1 mice; E12) was 300. The Total normal fetuses (9-month-old CF1 mice; E12) was 282, the Total resorption sites (9-month-old CF1 mice; E12) was 18 and the “Total normal fetuses/total animals” value (9-month-old CF1 mice; E12, as fraction) was 282/29. For the same compound, the “Total normal fetuses/total pregnancies” value (9-month-old CF1 mice; E12, as fraction) was 282/24, the “Total resorption sites/total animals” value (9-month-old CF1 mice; E12, as fraction) was 18/29 and the “Total resorption sites/total implants” value (9-month-old CF1 mice; E12, as fraction) was 18/300. For the same compound, the “Total resorption sites/total pregnancies” value (9-month-old CF1 mice; E12, as fraction) was 18/24, the “Total normal fetuses/total animals” value (9-month-old CF1 mice; E12, quotient) was “(9.27)” and the “Total normal fetuses/total pregnancies” value (9-month-old CF1 mice; E12, quotient) was “(11.75)”. The “Total resorption sites/total animals” value (9-month-old CF1 mice; E12, quotient) was “(0.62)”, the Total pregnancy (9-month-old CF1 mice; number of mice, 1% putrescine in drinking water) was 24 and the Plug observed (9-month-old CF1 mice; number of mice, 1% putrescine in drinking water 5-8 days up to plug) was 25. For the same compound, the Plug pregnancy (9-month-old CF1 mice; percent of plugged mice) was “(92.00%)”, the Unplug pregnancy (9-month-old CF1 mice; percent of unplugged mice) was “(25.00%)” and the Plug pregnancy (9-month-old CF1 mice; pregnant/plugged mice) was 23/25. The Unplug pregnancy (9-month-old CF1 mice; pregnant/unplugged mice) was 1/4, the “% Hyperploidy” value ([1]; 1% putrescine drinking water one week, IVM with 5 mM putrescine) was 0% and the “% Aneuploidy” value ([1]; Aneuploid: 2×hyperploid+PSSC, 1% putrescine drinking water one week, IVM with 5 mM putrescine) was 5.3%. For the same compound, the “Euploid 20” value [1, 4] was 83, the “Hyperploid 21” value [1, 4] was 0 and the “Hyperploid 22” value [1, 4] was 0. The “Hypoploid 19” value [1, 4] was 21, the PSSC [1, 4] was 6 and the “Hypoploid 18” value ([1]; number of MII eggs, 1% putrescine drinking water one week, then 17 h IVM with 5 mM putrescine) was 4. For the same compound, the Hyperploid ([1]; number of eggs per experiment date (breakdown of Table 13)) was 0, the “number of fully grown GV oocytes in the ovaries” value ([1]; putrescine in drinking water, n=13) was 25.3 /mouse and the fetal toxicity [2] was “fetal toxicity was found”. The “Normal MI spindle” value ([3]; normal/examined MI oocytes) was 19/20*, the dead ([3]; number of oocytes) was 1 and the GV ([3]; number of oocytes remained in prophase I, two experiments) was 6. For the same compound, the fragmented ([3]; number of oocytes with abnormal cleavage) was 0, the PB1 ([3]; number of oocytes with first polar body) was 2 and the MI ([3]; number of oocytes, no germinal vesicle and no polar body) was 21.
